Data reported in ChEMBL document CHEMBL4725417, “Membrane Permeable, Bioreversibly Modified Prodrugs of Nucleoside Diphosphate-γ-Phosphonates” (J Med Chem, 2020).
Active and inactive are the calls of the source. The rule behind the calls is not given here.

How the values were obtained:
[1] = tested on: Human immunodeficiency virus 1; experiment: Antiviral activity against HIV1 3B infected in human CEM/0 CD4+ T cells assessed as reduction in virus-induced cytopathogenicity by measuring syncytia cell formation incubated for 4 to 5 days by microscopy; type: functional, organism-based; details: Human immunodeficiency virus 1, 3B, CCRF-CEM
[2] = Half life assessed as pig liver esterase-mediated compound hydrolysis at 6 mM by HPLC analysis; type: ADME, Sus scrofa
[3] = tested on: Human immunodeficiency virus 2; experiment: Antiviral activity against HIV2 ROD infected in human CEM/0 CD4+ T cells assessed as reduction in virus-induced cytopathogenicity by measuring syncytia cell formation incubated for 4 to 5 days by microscopy; details: Human immunodeficiency virus 2, ISOLATE ROD, CCRF-CEM
[4] = tested on: Human immunodeficiency virus 2; experiment: Antiviral activity against HIV2 ROD infected in human TK-deficient CEM/TK- T-cells assessed as reduction in virus-induced cytopathogenicity by measuring syncytia cell formation incubated for 4 to 5 days by microscopy; details: Human immunodeficiency virus 2, ISOLATE ROD
[5] = Cytotoxicity in human CEM cells assessed as reduction in cell proliferation; type: cell-based; details: CEM cells (CCRF-CEM)
[6] = Half life in pH 7.3 PBS buffer at 1.4 mM by HPLC analysis; type: physicochemical
[7] = Half life in human CEM/0 cell extracts at 6 mM by HPLC analysis; type: ADME, tissue-based, CCRF-CEM
[8] = target: DNA polymerase beta (Homo sapiens) (UniProt P06746); experiment: Substrate activity at human DNA polymerase beta incubated at 37 degC for 60 mins and at 80 degC for 7 mins by primer extension assay; details: time 67.0 min
[9] = target: T1, DNA polymerase alpha catalytic subunit (Homo sapiens) (UniProt P09884); experiment: Substrate activity at human DNA polymerase alpha incubated at 37 degC for 60 mins and at 80 degC for 7 mins by primer extension assay; details: time 67.0 min
T1 sequence (whole entry): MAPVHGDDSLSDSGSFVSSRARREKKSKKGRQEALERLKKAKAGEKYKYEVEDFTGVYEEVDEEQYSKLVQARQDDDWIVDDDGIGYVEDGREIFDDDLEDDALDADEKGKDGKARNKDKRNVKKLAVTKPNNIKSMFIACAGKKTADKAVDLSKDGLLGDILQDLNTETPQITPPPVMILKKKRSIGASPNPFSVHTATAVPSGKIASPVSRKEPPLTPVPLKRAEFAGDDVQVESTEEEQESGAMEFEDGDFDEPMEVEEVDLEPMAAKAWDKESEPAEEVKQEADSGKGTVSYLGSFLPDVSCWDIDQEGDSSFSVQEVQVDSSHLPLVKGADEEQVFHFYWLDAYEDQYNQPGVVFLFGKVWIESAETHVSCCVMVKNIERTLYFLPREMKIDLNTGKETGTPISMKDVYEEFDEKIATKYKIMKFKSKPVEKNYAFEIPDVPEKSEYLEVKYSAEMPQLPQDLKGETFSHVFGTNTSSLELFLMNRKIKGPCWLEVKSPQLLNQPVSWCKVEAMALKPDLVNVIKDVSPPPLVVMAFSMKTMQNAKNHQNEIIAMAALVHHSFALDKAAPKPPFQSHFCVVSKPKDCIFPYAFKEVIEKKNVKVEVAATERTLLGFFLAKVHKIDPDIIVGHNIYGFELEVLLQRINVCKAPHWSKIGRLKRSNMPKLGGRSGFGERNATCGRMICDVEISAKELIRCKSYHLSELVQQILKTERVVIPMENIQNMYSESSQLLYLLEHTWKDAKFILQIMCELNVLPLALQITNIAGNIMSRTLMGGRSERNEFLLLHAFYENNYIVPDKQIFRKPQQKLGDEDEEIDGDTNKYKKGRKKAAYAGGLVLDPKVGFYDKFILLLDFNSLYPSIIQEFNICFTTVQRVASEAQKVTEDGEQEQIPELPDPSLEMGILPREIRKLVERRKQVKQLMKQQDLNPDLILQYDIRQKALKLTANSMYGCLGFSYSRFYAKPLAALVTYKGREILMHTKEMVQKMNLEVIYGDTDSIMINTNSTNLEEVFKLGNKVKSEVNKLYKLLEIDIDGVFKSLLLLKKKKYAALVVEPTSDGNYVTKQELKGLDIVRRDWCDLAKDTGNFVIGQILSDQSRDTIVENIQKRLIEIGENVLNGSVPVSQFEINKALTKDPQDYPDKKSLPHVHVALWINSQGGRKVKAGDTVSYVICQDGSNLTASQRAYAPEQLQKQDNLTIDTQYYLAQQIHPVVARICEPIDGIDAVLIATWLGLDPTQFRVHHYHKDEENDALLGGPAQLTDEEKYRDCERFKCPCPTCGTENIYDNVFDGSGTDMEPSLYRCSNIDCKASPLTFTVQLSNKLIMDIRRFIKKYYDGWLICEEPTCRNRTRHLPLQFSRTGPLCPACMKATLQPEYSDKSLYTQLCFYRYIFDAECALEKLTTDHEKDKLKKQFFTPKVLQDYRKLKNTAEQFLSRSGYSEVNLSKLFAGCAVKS

[10] = target: Human immunodeficiency virus type 1 reverse transcriptase (Human immunodeficiency virus 1) (UniProt Q72547); experiment: Substrate activity at HIV1 reverse transcriptase incubated at 37 degC for 30 mins and at 80 degC for 7 mins by primer extension assay; details: time 37.0 min
Homo sapiens = organism: Homo sapiens; experiment: Substrate activity at human DNA polymerase gamma incubated at 37 degC for 60 mins and at 80 degC for 7 mins by primer extension assay; details: time 67.0 min

SMILES | EC50 [1] | half-life at 6000 µM [2] | EC50 [3] | EC50 [4] | CC50 [5] | half-life at 1400 µM [6] | half-life at 6000 µM [7] | Activity [8] | Activity [9] | Activity [10] | Activity (Homo sapiens)
CCCCCCCCCCCCCCP(=O)(OCc1ccc(OC(=O)OCCCC)cc1)OP(=O)(O)OP(=O)(O)OC[C@@H]1C=C[C@H](n2cc(C)c(=O)[nH]c2=O)O1.N.N (stereo not given in full) | 120 nM | 0.032 h | 220 nM | 1760 nM | 32000 nM | 21.6 days | 64 h | – | – | – | –
CCCCCCCCCCCCCCCCCCP(=O)(O)OP(=O)(O)OP(=O)(O)OC[C@@H]1C=C[C@H](n2cc(C)c(=O)[nH]c2=O)O1.N.N.N | 46 nM | > 80 h | 110 nM | 1580 nM | 21000 nM | 22.3 days | > 30 h | inactive | inactive | inactive | inactive
CCCCCCCCCCCCP(=O)(OCc1ccc(OC(C)=O)cc1)OP(=O)(O)OP(=O)(O)OC[C@@H]1C=C[C@H](n2cc(C)c(=O)[nH]c2=O)O1.N.N (stereo not given in full) | 23 nM | 0.46 h | 21 nM | 26300 nM | > 100000 nM | 4.29 days | 0.043 h | – | – | – | –
CCCCCCCCCCCCP(=O)(O)OP(=O)(O)OP(=O)(O)OC[C@@H]1C=C[C@H](n2cc(C)c(=O)[nH]c2=O)O1.N.N.N | 150 nM | > 150 h | 170 nM | 41100 nM | > 100000 nM | > 125 days | > 30 h | inactive | inactive | Active | inactive
CCCCCCCCCCCCP(=O)(OCCC#N)OP(=O)(O)OP(=O)(O)OC[C@@H]1C=C[C@H](n2cc(C)c(=O)[nH]c2=O)O1.N.N (stereo not given in full) | 210 nM | > 80 h | 87 nM | 20900 nM | > 100000 nM | 6.17 days | > 15 h | – | – | – | –
CCCCCCCCCCCCP(=O)(OCc1ccc(OC(=O)CCCCCCCCCCC)cc1)OP(=O)(O)OP(=O)(O)OC[C@@H]1C=C[C@H](n2cc(C)c(=O)[nH]c2=O)O1.N.N (stereo not given in full) | 7.4 nM | 0.917 h | 91 nM | 66 nM | 37000 nM | 38.3 days | > 8 h | – | – | – | –
CCCCCCCCCCCCP(=O)(OCc1ccc(OC(=O)OC)cc1)OP(=O)(O)OP(=O)(O)OC[C@@H]1C=C[C@H](n2cc(C)c(=O)[nH]c2=O)O1.N.N (stereo not given in full) | 95 nM | 0.7 h | 350 nM | 36800 nM | > 100000 nM | 5.12 days | 0.65 h | – | – | – | –
Cc1cn([C@H]2C=C[C@@H](CO)O2)c(=O)[nH]c1=O [STAVUDINE] | – | – | – | – | > 50000 nM | – | – | Active | inactive | – | inactive
CCCCCCCCCCCCP(=O)(OCc1ccc(OC(=O)OCCCCCCCCCCC)cc1)OP(=O)(O)OP(=O)(O)OC[C@@H]1C=C[C@H](n2cc(C)c(=O)[nH]c2=O)O1.N.N (stereo not given in full) | 40 nM | 10.6 h | 110 nM | 320 nM | 39000 nM | 47.9 days | > 10 h | – | – | – | –
CCCCCCCCCCCCCCCCCCP(=O)(OCc1ccc(OC(=O)CCCC)cc1)OP(=O)(O)OP(=O)(O)OC[C@@H]1C=C[C@H](n2cc(C)c(=O)[nH]c2=O)O1.N.N (stereo not given in full) | 7.4 nM | 2 h | 21 nM | 42 nM | 19000 nM | 26.9 days | 6.7 h | – | – | – | –
CCCCCCCCCCCCCCCCCCP(=O)(OCc1ccc(OC(=O)OCCCC)cc1)OP(=O)(O)OP(=O)(O)OC[C@@H]1C=C[C@H](n2cc(C)c(=O)[nH]c2=O)O1.N.N (stereo not given in full) | 1.8 nM | 1.04 h | 26 nM | 32 nM | 16000 nM | 51.7 days | > 10 h | – | – | – | –
CCCCCCCCCCCCCCP(=O)(OCc1ccc(OC(=O)CCCC)cc1)OP(=O)(O)OP(=O)(O)OC[C@@H]1C=C[C@H](n2cc(C)c(=O)[nH]c2=O)O1.N.N (stereo not given in full) | 31 nM | 0.081 h | 160 nM | 530 nM | 56000 nM | 21.2 days | 4.5 h | – | – | – | –
CCCCCCCCCCCCP(=O)(OCc1ccc(OC(=O)CCCC)cc1)OP(=O)(O)OP(=O)(O)OC[C@@H]1C=C[C@H](n2cc(C)c(=O)[nH]c2=O)O1.N.N (stereo not given in full) | 65 nM | 0.013 h | 25 nM | 3430 nM | 86000 nM | 8.96 days | 0.81 h | – | – | – | –
CCCCCCCCCCCCCCCCCCP(=O)(OCCC#N)OP(=O)(O)OP(=O)(O)OC[C@@H]1C=C[C@H](n2cc(C)c(=O)[nH]c2=O)O1.N.N (stereo not given in full) | 95 nM | > 150 h | 46 nM | 140 nM | 38000 nM | 20 days | > 10 h | – | – | – | –
CCCCCCCCCCCCP(=O)(OCc1ccc(OC(=O)OCCCC)cc1)OP(=O)(O)OP(=O)(O)OC[C@@H]1C=C[C@H](n2cc(C)c(=O)[nH]c2=O)O1.N.N (stereo not given in full) | 97 nM | 0.009 h | 200 nM | 9900 nM | 38000 nM | 14.4 days | 4.3 h | – | – | – | –
